The values below come from ChEMBL document CHEMBL5375945, “Structure-Guided Design of a Domain-Selective Bromodomain and Extra Terminal N-Terminal Bromodomain Chemical Probe” (J Med Chem, 2023).

Usually IC50 stands for the concentration at which inhibition is half-maximal. A low value points to greater potency in that assay.

In assay [1] the target is T1, Bromodomain-containing protein 4 (Homo sapiens, UniProt O60885). Briefly: Inhibition of BRD4 BD1 (unknown origin) by TR-FRET assay. (TR-FRET usually uses a lanthanide donor and a delayed reading to cut background.)
The target in assay [2] is T1, Bromodomain-containing protein 4. Briefly: Inhibition of BRD4 BD2 (unknown origin) by TR-FRET assay.

Consider `CC(=O)N1CCC[C@H](Cn2c(-c3cc(C)c(=O)n(C)c3)nc3ccccc32)C1`, for which the 50% inhibitory concentration (IC50) in assay [1] is 31.6 nM; in assay [2] it was 501 nM.
On the same counts, the results for `CC(=O)N1CCC[C@@H](Cn2c(-c3cc(C)c(=O)n(C)c3)nc3cc(Br)ccc32)C1` are 10 nM and 501 nM.
Consider `CC(=O)N1CCC[C@@H](Cn2c(-c3cc(C)c(=O)n(C)c3)nc3ccccc32)C1`, for which, in assay [2], the midpoint of inhibition, the IC50, lay at 631 nM.
